Test results from patent US12492197B2, “3,5-disubstituted pyrazole compounds as kinase inhibitors and uses thereof” (IMPACT THERAPEUTICS (SHANGHAI), INC, priority 2019, dated 2025).

How the values were obtained:
CHK1 kinase = biological target: T1, CHK1 kinase (Homo sapiens, UniProt O14757); assay: CHK1 kinase inhibition, ADP-Glo kinase assay; format: biochemical; conditions: ATP 10 μM, CHK1 1 ng/well; for inhibition at 0.01 µM: compound concentration 10 nM, read-out: Inh % (inhibitory effect on CHK1 kinase activity); for IC50: read-out: IC50 (inhibitory effect on CHK1 kinase activity)
T1 construct: purchased Promega V1941
T1 sequence (O14757 1-476): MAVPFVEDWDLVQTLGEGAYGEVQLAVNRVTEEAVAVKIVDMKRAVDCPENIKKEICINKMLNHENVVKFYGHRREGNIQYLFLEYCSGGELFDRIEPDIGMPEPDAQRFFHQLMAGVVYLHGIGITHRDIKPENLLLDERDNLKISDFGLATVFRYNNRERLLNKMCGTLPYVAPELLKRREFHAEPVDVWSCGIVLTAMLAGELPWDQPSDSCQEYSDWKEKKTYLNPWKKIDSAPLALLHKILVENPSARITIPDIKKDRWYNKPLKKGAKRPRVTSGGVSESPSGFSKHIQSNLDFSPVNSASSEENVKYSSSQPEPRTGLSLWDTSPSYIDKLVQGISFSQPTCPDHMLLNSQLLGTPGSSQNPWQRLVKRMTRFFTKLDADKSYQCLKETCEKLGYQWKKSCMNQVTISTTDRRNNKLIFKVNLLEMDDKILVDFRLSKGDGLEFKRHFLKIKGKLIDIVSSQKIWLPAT
Experimental: 2 μL of kinase CHK1 (#V1941, Promega), 1 μL of compound diluted with buffer, and 2 μL of ATP substrate was successively added to a 384-well plate (final concentration of CHK1 was 1 ng/well, ATP was 10 μM). The positive control wells contained CHK1, ATP and DMSO whereas the negative control wells contained ATP, DMSO without enzyme. The mixtures were centrifuged at 1000 rpm for 1 minute and kept in darkness at room temperature for 1 hour to react. Then, 5 μL of ADP-Glo reagent was added to each well and incubated at room temperature for 40 minutes. At the end of incubation, 10 μL of kinase detection reagent was added to each well, and the relative chemiluminescence values (RLU) were measured on Varioskan® Flash (Thermo). The following calculation was performed: Inhibition rate %=(RLU of positive control−RLU of compound)/(RLU of positive control−RLU of negative control)×100. Data were analyzed using GraphPad Prism6.0 and fitted using the curve equation: Y=Bottom+(Top-Bottom)/(1+10^((Log IC50−X)*HillSlope)), and IC50 values were calculated.

[1] = tested on: human breast cancer cell HCC1806; assay: Proliferation of HCC1806 cells, MTT assay; format: cell-based; conditions: HCC1806, 72 h, 3 days treatment, read-out: IC50 (inhibition of proliferation of HCC1806)
Experimental: Newly revived HCC1806 cells (purchased from Guangzhou Genio) were cultured and passaged for at least three generations before use. Cells were used at 90% confluency for experiments. Cells were digested with trypsinase and centrifuged at 800 rpm for 5 minutes. The cell pellets were resuspended in fresh RPMI1640 medium and cells were counted. Cells were seeded on 96-well cell culture plates at 2000 cells/well and incubated overnight at 37° C., 5% CO2. The stock solutions of the test substances (including the test compounds and the reference compound) were serially diluted to 8 concentrations with DMSO at a ratio of 1:3. Five μL of each of the serially diluted solutions were added to 120 μL of medium (diluted by 25 times) and mixed by shaking. […] The cell culture plates were returned to incubator at 37° C., 5% CO2 for 3 days. At the end of treatment the cell viability was determined by MTT colorimetric assay. Cell culture medium in each well was replaced by 100 μL/well of serum-free fresh medium containing MTT (0.5 mg/mL), and the culture was continued for additional 4 hours.
(§1) Data was analyzed by GraphPad Prism 6.0. The inhibitory effects of compounds on cell proliferation were plotted based on cell viability vs. the logarithm of compound concentration. Cell viability %=(ODcompound−ODbackground)/(ODDMSO−ODbackground)×100.

[2] = tested on: human pancreatic cancer cell SW1990; assay: Proliferation of SW1990 cells, MTT assay; format: cell-based; conditions: SW1990, 120 h, 5 days treatment, read-out: IC50 (inhibition of proliferation of SW1990)
Experimental: Newly revived SW1990 cells (purchased from Shanghai Fuheng Biology) were cultured and passaged for at least three generations before use. Cells were used at about 90% confluency for experiments. Cells were digested with trypsinase and centrifuged at 800 rpm for 5 minutes. The cell pellets were resuspended in fresh DMEM medium and cells were counted. Cells were seeded on 96-well cell culture plates at 5000 cells/well and incubated overnight at 37° C., 5% CO2. The stock solutions of the test substances (including the test compounds and the reference compound) were serially diluted to 8 concentrations with DMSO at a ratio of 1:3. 5 μL of each serially diluted solutions was added to 120 μL of medium (diluted by 25 times) and mixed by shaking. […] The cell culture plates were returned to incubator at 37° C. and 5% CO2 for 5 days. At the end of the treatment the cell viability was determined by MTT colorimetric assay. Cell culture medium in each well was replaced by 100 μL/well of serum-free fresh medium containing MTT (0.5 mg/mL), and the culture was continued for additional 4 hours. Medium was then discarded and 100 μL/well of DMSO was added.
as §1

[3] = tested on: human colon cancer cell LoVo; assay: Proliferation of LoVo cells, MTT assay; format: cell-based; conditions: 96 h, 4 days treatment, read-out: IC50 (inhibition of proliferation of LoVo)
Experimental: Newly revived LoVo cells (purchased from Shanghai Cell Institute) were cultured and passaged for at least three generations before use. Cells were used at 90% confluence for experiment. Cells were digested with trypsinase and centrifuged at 800 rpm for 5 minutes and the supernatant was discarded. The cell pellets were resuspended in fresh RPMI1640 medium and counted. Cells were seeded on 96-well cell culture plates at 5000 cells/well and incubated overnight at 37° C., 5% CO2. The stock solutions of the test substances (including the test compounds and the reference compound) were serially diluted to 8 concentrations with DMSO at a ratio of 1:3. 5 μL of each series diluted solutions was added to 120 μL of medium (diluted by 25 times) and mixed by shaking. […] The cell culture plates were returned to incubator at 37° C. and 5% CO2 for 4 days. At the end of treatment, the cell viability was determined by MTT colorimetric assay. Cell culture medium in each well was replaced by 100 μL/well of serum-free DMEM medium containing MTT (0.5 mg/mL), and the culture was continued for additional 4 hours. Medium was then discarded and 100 μL/well of DMSO was added.
as §1

Row | SMILES | inhibition at 0.01 µM (CHK1 kinase) [%] | IC50 [1] [nM] | IC50 [2] [nM] | IC50 (CHK1 kinase) [nM] | IC50 [3] [nM]
1 | COc1cccc(OC[C@@H]2CNCCO2)c1-c1cc(Nc2ccc(C#N)nc2)n[nH]1 [Example 2, (S)-5-((5-(2-methoxy-6-(morpholin-2-ylmethoxy)phenyl)-1H-pyrazol-3-yl)amino)picolinonitrile] | 85 | 153 | 84.9 | – | –
2 | COc1cccc(OC[C@H]2CNCCO2)c1-c1cc(Nc2cnc(C#N)cn2)n[nH]1 [Example 3, (R)-5-((5-(2-methoxy-6-(morpholin-2-ylmethoxy)phenyl)-1H-pyrazol-3-yl)amino)pyrazine-2-carbonitrile] | 79 | 94.2 | 50.7 | – | –
3 | COc1cccc(OC[C@@H]2CN(C)CCO2)c1-c1cc(Nc2cnc(C#N)cn2)n[nH]1 [Example 4, (S)-5-((5-(2-methoxy-6-((4-methylmorpholin-2-yl)methoxy)phenyl)-1H-pyrazol-3-yl)amino)pyrazine-2-carbonitrile] | 82 | 139 | 123 | – | –
4 | N#Cc1cnc(Nc2cc(-c3c(F)cccc3OC[C@H]3CCNC3)[nH]n2)cn1 [Example 54, (S)-5-((5-(2-fluoro-6-(pyrrolidin-3-ylmethoxy)phenyl)-1H-pyrazol-3-yl)amino)pyrazine-2-carbonitrile] | – | 30.7 | – | 0.86 | 16.2
5 | N#Cc1cnc(Nc2cc(-c3c(F)cccc3OC[C@@H]3CNCCO3)[nH]n2)cn1 [Example 55, (S)-5-((5-(2-fluoro-6-(morpholin-2-ylmethoxy)phenyl)-1H-pyrazol-3-yl)amino)pyrazine-2-carbonitrile] | 82 | 315 | – | – | 153
6 | N#Cc1cnc(Nc2cc(-c3c(F)cc(F)cc3OC[C@H]3CCCNC3)[nH]n2)cn1 [Example 56, (S)-5-((5-(2,4-difluoro-6-(piperidin-3-ylmethoxy)phenyl)-1H-pyrazol-3-yl)amino)pyrazine-2-carbonitrile] | – | 27.4 | – | 1.02 | 22.3
7 | N#Cc1cnc(Nc2cc(-c3c(F)cc(Cl)cc3OC[C@H]3CCCNC3)[nH]n2)cn1 [Example 57, (S)-5-((5-(4-chloro-2-fluoro-6-(piperidin-3-ylmethoxy)phenyl)-1H-pyrazol-3-yl)amino)pyrazine-2-carbonitrile] | 92 | 170 | – | – | 106
8 | N#Cc1cnc(Nc2cc(-c3c(F)cc(Br)cc3OC[C@H]3CCCNC3)[nH]n2)cn1 [Example 59, (S)-5-((5-(4-bromo-2-fluoro-6-(piperidin-3-ylmethoxy)phenyl)-1H-pyrazol-3-yl)amino)pyrazine-2-carbonitrile] | – | 60 | – | 2.27 | 60.8
9 | Cc1cc(F)c(-c2cc(Nc3cnc(C#N)cn3)n[nH]2)c(OC[C@H]2CCNC2)c1 [Example 62, (S)-5-((5-(2-fluoro-4-methyl-6-(pyrrolidin-3-ylmethoxy)phenyl)-1H-pyrazol-3-yl)amino)pyrazine-2-carbonitrile] | – | 21.6 | – | 1.58 | 18
10 | Cc1cc(F)c(-c2cc(Nc3cnc(C#N)cn3)n[nH]2)c(OC[C@H]2CCCNC2)c1 [Example 63, (S)-5-((5-(2-fluoro-4-methyl-6-(piperidin-3-ylmethoxy)phenyl)-1H-pyrazol-3-yl)amino)pyrazine-2-carbonitrile] | – | 52.6 | – | 1.66 | 40.2
11 | COc1cccc(OC[C@H]2CCCN2)c1-c1cc(Nc2cnc(C#N)cn2)n[nH]1 [Example 65, (R)-5-((5-(2-methoxy-6-(pyrrolidin-2-ylmethoxy)phenyl)-1H-pyrazol-3-yl)amino)pyrazine-2-carbonitrile] | – | 11.9 | – | 0.26 | 7.3
12 | COc1cc(F)cc(OC[C@H]2CCCN2)c1-c1cc(Nc2cnc(C#N)cn2)n[nH]1 [Example 66, (R)-5-((5-(4-fluoro-2-methoxy-6-(pyrrolidin-2-ylmethoxy)phenyl)-1H-pyrazol-3-yl)amino)pyrazine-2-carbonitrile] | – | 26.5 | – | 1.22 | 14.3
13 | COc1cc(Cl)cc(OCC2CNC2)c1-c1cc(Nc2cnc(C#N)cn2)n[nH]1 [Example 67, 5-((5-(2-(azetidin-3-ylmethoxy)-4-chloro-6-methoxyphenyl)-1H-pyrazol-3-yl)amino)pyrazine-2-carbonitrile] | – | 8.7 | – | 1.72 | 9.1
14 | COc1cc(Cl)cc(OC[C@H]2CCNC2)c1-c1cc(Nc2cnc(C#N)cn2)n[nH]1 [Example 68, (S)-5-((5-(4-chloro-2-methoxy-6-(pyrrolidin-3-ylmethoxy)phenyl)-1H-pyrazol-3-yl)amino)pyrazine-2-carbonitrile] | – | 2.8 | – | 0.44 | 2.3
15 | COc1cc(Br)cc(OC[C@H]2CCNC2)c1-c1cc(Nc2cnc(C#N)cn2)n[nH]1 [Example 70, (S)-5-((5-(4-bromo-2-methoxy-6-(pyrrolidin-3-ylmethoxy)phenyl)-1H-pyrazol-3-yl)amino)pyrazine-2-carbonitrile] | – | 4.9 | – | 1.16 | 3.6
16 | COc1cccc(OC[C@@H]2CNCCS2)c1-c1cc(Nc2cnc(C#N)cn2)n[nH]1 [Example 76-A, (S)-5-((5-(2-methoxy-6-(thiomorpholin-2-ylmethoxy)phenyl)-1H-pyrazol-3-yl)amino)pyrazine-2-carbonitrile] | – | 1.4 | – | 0.79 | 2.1
17 | COc1cccc(OC[C@H]2CNCCS2)c1-c1cc(Nc2cnc(C#N)cn2)n[nH]1 [Example 76-B, (R)-5-((5-(2-methoxy-6-(thiomorpholin-2-ylmethoxy)phenyl)-1H-pyrazol-3-yl)amino)pyrazine-2-carbonitrile] | – | 18.5 | – | 1.21 | 17.8
